Source: patent US20220017566A1, “TERPINOID DERIVATIVES AND USES THEREOF” (SICHUAN HAISCO PHARMACEUTICAL CO., LTD., priority 2018, published 2022)
Read-outs that look alike come from different tables or passages of the source.

How the values were obtained:
[1] = Pharmacokinetic studies in Sprague Dawley rats (oral gavage and IV); assay type: in vivo; details: rat, male SD rats, plasma; for AUC(0-t): read-out: AUC0-24 h
Procedure, shortened: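 Male SD rats, fasted overnight, dosed 5 mg/kg oral gavage in 0.5% methylcellulose or 1 mg/kg IV in 5% DMSO/5% Solutol/90% saline, 3 per group. Plasma sampled predose and 0.5-24 h postdose, LC/MS/MS quantified; PK parameters from concentration-time data.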

[2] = Metabolic stability in monkey liver microsomes; assay type: in vitro ADME, cynomolgus monkey
Method: (§1) The metabolic stability of test compounds was examined in CD-1 mouse, Sprague Dawley rat, Beagle dog, cynomolgus monkey, and human liver microsomes. Test compound (final concentration 1 μM) was mixed with diluted liver microsomes from each of the 5 species and a small aliquot was taken at 0, 5, 10, 20, 30, and 60 minutes for LC/MS/MS analysis. Intrinsic clearance and half-life were calculated.

[3] = Metabolic stability in dog liver microsomes; assay type: in vitro ADME; details: Beagle
Method: as §1

[4] = test system: IFNγ-induced NO production in Raw 264.7 cells; assay: Nitric oxide assay: suppression of IFNγ-induced NO production (Griess nitrite, adjusted to live cell numbers); assay type: cell-based; details: Mus musculus, RAW264.7, 2 h pretreatment, IFNγ 10 ng/ml for 24 hours
Procedure, shortened: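 Raw 264.7 cells in DMEM + 2% FBS were pretreated 2 h with compound (10-point, 1:4 dilution from 100 nM), then stimulated with 10 ng/ml mouse IFNγ for 24 h. Media nitrite was read by Griess and normalised to CellTiter-Glo viability. IC50 from four-parameter fit of % inhibition.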

NQO1 = NQO1 activity assay in Raw264.7 cell lysates; assay type: cell-based; details: Mus musculus; Raw264.7 cells, 48 hours treatment
Method: Raw264.7 cells were seeded in DMEM+10% FBS in 96-well plates at a density of 10,000 cells per well. 6 hours after plating, cells were treated with DMSO or test compounds (top dose 100 nM, 1:4 serial dilution, 8-point) for 48 hours. NQO1 activity was then detected in cell lysates using NQO1 activity assay kit (Abeam, Cat#ab184867). NQO1 activity was then plotted against compound concentration, and EC50 values were calculated using four-parameter algorithm in Graphpad Prism.

CYP2C19 = target: T1, CYP2C19 (Homo sapiens, UniProt P33261); assay: CYP450 enzyme inhibition in liver microsomes (cocktail probe incubation); assay type: in vitro ADME; details: species not given, 0.05-50 μM tested
T1 construct: studied in liver microsomes of CD-1 mouse, Sprague Dawley rat, Beagle dog, cynomolgus monkey, and human; from tissue; host or cells: liver microsomes
Procedure, shortened: (§2)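 Liver microsomes (CD-1 mouse, SD rat, Beagle dog, cynomolgus monkey, human) incubated with a cocktail of CYP-specific probe substrates. Test compounds at seven concentrations (0.05, 0.15, 0.5, 1.5, 5, 15, 50 μM). Known inhibitors included as positive controls at a single concentration above their IC50.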

CYP1A2 = target: T2, CYP1A2 (Homo sapiens, UniProt P05177); assay: as above; assay type: in vitro ADME; details: species not given, 0.05-50 μM tested
T2 construct: studied in liver microsomes of CD-1 mouse, Sprague Dawley rat, Beagle dog, cynomolgus monkey, and human; from tissue; host or cells: liver microsomes
T2 sequence (P05177 1-516): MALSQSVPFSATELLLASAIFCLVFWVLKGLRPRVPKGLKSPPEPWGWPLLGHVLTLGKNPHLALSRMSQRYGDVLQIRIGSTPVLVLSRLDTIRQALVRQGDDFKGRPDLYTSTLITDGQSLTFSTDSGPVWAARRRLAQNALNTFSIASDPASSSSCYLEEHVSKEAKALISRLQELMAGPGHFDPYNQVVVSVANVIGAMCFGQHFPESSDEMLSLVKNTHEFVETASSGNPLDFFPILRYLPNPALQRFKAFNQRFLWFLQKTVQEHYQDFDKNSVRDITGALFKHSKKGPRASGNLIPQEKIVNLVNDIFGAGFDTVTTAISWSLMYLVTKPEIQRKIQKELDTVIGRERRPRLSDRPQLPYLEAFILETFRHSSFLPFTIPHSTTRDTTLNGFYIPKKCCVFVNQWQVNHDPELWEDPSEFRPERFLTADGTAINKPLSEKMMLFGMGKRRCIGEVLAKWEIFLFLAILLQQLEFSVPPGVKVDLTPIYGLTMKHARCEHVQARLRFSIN
Procedure, shortened: as §2

CYP2D6 = target: T3, CYP2D6 (Homo sapiens, UniProt P10635); assay: as above; assay type: in vitro ADME; details: species not given, 0.05-50 μM tested
T3 construct: studied in liver microsomes of CD-1 mouse, Sprague Dawley rat, Beagle dog, cynomolgus monkey, and human; from tissue; host or cells: liver microsomes
Procedure, shortened: as §2

CYP2C9 = target: T4, CYP2C9 (Homo sapiens, UniProt P11712); assay: as above; assay type: in vitro ADME; details: species not given, 0.05-50 μM tested
T4 construct: studied in liver microsomes of CD-1 mouse, Sprague Dawley rat, Beagle dog, cynomolgus monkey, and human; from tissue; host or cells: liver microsomes
Procedure, shortened: as §2

CYP3A4 = target: T5, CYP3A4 (Homo sapiens, UniProt P08684); assay: as above; assay type: in vitro ADME; details: species not given, 0.05-50 μM tested
T5 construct: studied in liver microsomes of CD-1 mouse, Sprague Dawley rat, Beagle dog, cynomolgus monkey, and human; from tissue; host or cells: liver microsomes
Procedure, shortened: as §2

[5] = Metabolic stability in mouse liver microsomes; assay type: in vitro ADME, CD-1 mouse; details: CD-1
Method: as §1

[6] = Metabolic stability in human liver microsomes; assay type: in vitro ADME
Method: as §1

[7] = Metabolic stability in rat liver microsomes; assay type: in vitro ADME; details: Sprague Dawley
Method: as §1

T5 sequence (P08684 whole entry): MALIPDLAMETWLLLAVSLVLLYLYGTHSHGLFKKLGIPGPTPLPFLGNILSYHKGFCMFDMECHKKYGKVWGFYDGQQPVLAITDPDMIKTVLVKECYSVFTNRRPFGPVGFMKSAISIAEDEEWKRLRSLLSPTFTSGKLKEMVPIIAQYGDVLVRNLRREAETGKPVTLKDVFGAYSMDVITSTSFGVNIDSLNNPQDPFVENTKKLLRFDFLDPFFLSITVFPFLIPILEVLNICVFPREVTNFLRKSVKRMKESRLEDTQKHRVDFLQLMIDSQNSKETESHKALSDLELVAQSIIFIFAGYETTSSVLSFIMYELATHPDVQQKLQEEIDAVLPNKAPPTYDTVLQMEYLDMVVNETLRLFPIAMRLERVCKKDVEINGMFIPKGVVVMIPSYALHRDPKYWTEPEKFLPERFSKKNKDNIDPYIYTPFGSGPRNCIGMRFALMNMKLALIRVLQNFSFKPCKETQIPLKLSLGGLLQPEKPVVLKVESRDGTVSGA
T3 sequence (P10635 whole entry): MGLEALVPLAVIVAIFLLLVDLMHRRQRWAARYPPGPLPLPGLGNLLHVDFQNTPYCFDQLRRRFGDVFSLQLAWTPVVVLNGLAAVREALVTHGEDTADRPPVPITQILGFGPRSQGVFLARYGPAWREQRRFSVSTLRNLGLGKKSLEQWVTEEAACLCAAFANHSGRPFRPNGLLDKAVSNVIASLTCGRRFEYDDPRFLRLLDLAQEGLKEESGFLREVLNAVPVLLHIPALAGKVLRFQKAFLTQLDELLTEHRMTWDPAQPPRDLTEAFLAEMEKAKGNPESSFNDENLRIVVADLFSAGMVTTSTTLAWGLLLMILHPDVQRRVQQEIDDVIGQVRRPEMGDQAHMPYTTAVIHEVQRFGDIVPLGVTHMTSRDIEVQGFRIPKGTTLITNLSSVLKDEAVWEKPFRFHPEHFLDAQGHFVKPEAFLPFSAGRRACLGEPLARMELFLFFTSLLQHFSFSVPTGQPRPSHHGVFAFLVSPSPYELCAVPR
T1 sequence (P33261 whole entry): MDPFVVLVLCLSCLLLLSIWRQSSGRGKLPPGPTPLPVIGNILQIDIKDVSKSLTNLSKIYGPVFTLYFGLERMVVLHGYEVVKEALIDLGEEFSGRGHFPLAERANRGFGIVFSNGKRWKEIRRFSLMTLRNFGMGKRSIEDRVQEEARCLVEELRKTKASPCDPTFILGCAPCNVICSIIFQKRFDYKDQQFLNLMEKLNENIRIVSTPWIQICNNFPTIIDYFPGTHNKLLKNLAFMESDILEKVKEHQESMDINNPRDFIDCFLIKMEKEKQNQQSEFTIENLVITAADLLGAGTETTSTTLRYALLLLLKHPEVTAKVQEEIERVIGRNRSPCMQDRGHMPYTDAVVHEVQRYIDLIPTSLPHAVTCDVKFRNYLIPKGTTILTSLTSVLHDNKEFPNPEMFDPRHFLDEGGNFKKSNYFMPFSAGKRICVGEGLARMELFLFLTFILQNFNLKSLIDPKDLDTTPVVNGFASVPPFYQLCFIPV
T4 sequence (P11712 whole entry): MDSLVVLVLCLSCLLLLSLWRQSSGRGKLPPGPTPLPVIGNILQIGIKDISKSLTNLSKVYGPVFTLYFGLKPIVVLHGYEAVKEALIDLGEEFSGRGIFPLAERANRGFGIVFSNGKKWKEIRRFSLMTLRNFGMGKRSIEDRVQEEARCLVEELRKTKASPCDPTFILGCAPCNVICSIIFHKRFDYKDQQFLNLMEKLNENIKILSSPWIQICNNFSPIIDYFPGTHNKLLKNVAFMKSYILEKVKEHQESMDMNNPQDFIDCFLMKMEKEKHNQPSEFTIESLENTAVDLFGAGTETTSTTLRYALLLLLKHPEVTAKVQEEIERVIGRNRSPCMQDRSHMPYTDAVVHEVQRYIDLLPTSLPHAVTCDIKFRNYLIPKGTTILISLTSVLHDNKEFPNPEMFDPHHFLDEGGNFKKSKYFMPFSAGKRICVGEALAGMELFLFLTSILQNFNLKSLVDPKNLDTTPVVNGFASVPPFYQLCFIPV

Which C0 ([1]; IV (1 mg/kg)) does the source give for `CC1(C)C(=O)C(C#N)=C[C@]2(C)C3=CC(=O)[C@@H]4[C@@H]5C[C@@](C)(N6CC(O)C6)CC[C@]5(C)CC[C@@]4(C)[C@]3(C)CC[C@@H]12` [Example 26, (4aR,6aS,6bR,8aS,11S,12aS,14bS)-11-(3-hydroxyazetidin-1-yl)-4,4,6a,6b,8a,11,14b-heptamethyl-3,13-dioxo-3,4,4a,5,6,6a,6b,7,8,8a,9,10,11,12,12a,12b,13,14b-octadecahydropicene-2-carbonitrile] here?
Its C0 is 1040 ng/mL.

And the clearance ([1]; IV (1 mg/kg))?
The clearance was 56.3 mL/min/kg.

What about the half-life ([1]; IV (1 mg/kg)) of the same molecule?
The half-life was 282 min.

And the AUC(0-t) ([1]; IV (1 mg/kg))?
The AUC(0-t) was 294 ng·h/mL.

And the Cmax ([1]; Oral (5 mg/kg))?
The Cmax was 57 ng/mL.

What about the half-life ([1]; Oral (5 mg/kg)) of the same molecule?
Its half-life is 216 min.

And the AUC(0-t) ([1]; Oral (5 mg/kg))?
Its AUC(0-t) is 270 ng·h/mL.

What about the bioavailability ([1]; oral 5 mg/kg vs IV 1 mg/kg, read-out: Bioavailibility F %) of the same molecule?
The bioavailability was 18.3%.

What about the CLint scaled at 1 μM [2] of the same molecule?
Its CLint scaled at 1 μM is 752 mL/min/kg.

What about the half-life at 1 μM [2] of the same molecule?
The half-life at 1 μM was 2.5 min.

And the CLint scaled at 1 μM [3]?
Its CLint scaled at 1 μM is 77.3 mL/min/kg.

And the half-life at 1 μM [3]?
The half-life at 1 μM was 25.8 min.

And the IC50 [4]?
The IC50 was under 0.01 µM.

And the EC50 (NQO1)?
Its EC50 is under 0.01 µM.

And the IC50 (CYP2C19)?
The IC50 was over 50 µM.

What about the IC50 (CYP1A2) of the same molecule?
The IC50 was over 50 µM.

What about the IC50 (CYP2D6) of the same molecule?
The IC50 was over 50 µM.

And the IC50 (CYP2C9)?
The IC50 was 27.6 µM.

And the IC50 (CYP3A4)?
The IC50 was 14.6 µM.

What about the CLint scaled at 1 μM [5] of the same molecule?
The CLint scaled at 1 μM was 402 mL/min/kg.

And the half-life at 1 μM [5]?
Its half-life at 1 μM is 13.7 min.

What about the CLint scaled at 1 μM [6] of the same molecule?
Its CLint scaled at 1 μM is 184 mL/min/kg.

What about the half-life at 1 μM [6] of the same molecule?
Its half-life at 1 μM is 6.8 min.

What about the CLint scaled at 1 μM [7] of the same molecule?
Its CLint scaled at 1 μM is 161 mL/min/kg.

And the half-life at 1 μM [7]?
Its half-life at 1 μM is 15.5 min.
